Measured values as given in the NIST ThermoML archive (doi:10.1021/acs.jced.5b00806).
Numbers after ± are expanded uncertainties.

Columns and labels:
[1] = wn = mass fraction of the nth substance listed; conditions: 98 kPa, Liquid, Capillary tube (Ostwald / Ubbelohde) method
[2] = 101.33 kPa, Liquid, Pycnometric method
[3] = xn = mol fraction of the nth substance listed; conditions: 98 kPa, Liquid, magnetic suspension balance, x2 = 0.55

CCOS(=O)(=O)[O-].CCn1cc[n+](C)c1 [1-ethyl-3-methylimidazolium ethyl sulfate] + O
kinematic viscosity [m2/s], [1]
Conditions | w2 = 0.0038 | w2 = 0.009 | w2 = 0.0164 | w2 = 0.0239 | w2 = 0.0359 | w2 = 0.0483 | w2 = 0.0563 | w2 = 0.066
303.2 K | 5.5e-05 ± 1.7e-06 | 5.06e-05 ± 1.7e-06 | 4.43e-05 ± 1.7e-06 | 4.03e-05 ± 1.6e-06 | 3.57e-05 ± 1.6e-06 | 3.26e-05 ± 1.6e-06 | 3.13e-05 ± 1.6e-06 | 2.99e-05 ± 1.6e-06
313.2 K | 3.74e-05 ± 1.7e-06 | 3.56e-05 ± 1.6e-06 | 3.11e-05 ± 1.6e-06 | 2.86e-05 ± 1.6e-06 | 2.51e-05 ± 1.5e-06 | 2.3e-05 ± 1.5e-06 | 2.21e-05 ± 1.5e-06 | 2.11e-05 ± 1.5e-06
323.2 K | 2.69e-05 ± 1.6e-06 | 2.63e-05 ± 1.6e-06 | 2.34e-05 ± 1.5e-06 | 2.17e-05 ± 1.5e-06 | 1.99e-05 ± 1.5e-06 | 1.69e-05 ± 1.5e-06 | 1.63e-05 ± 1.5e-06 | 1.55e-05 ± 1.5e-06
333.2 K | 2.01e-05 ± 1.5e-06 | 1.9e-05 ± 1.5e-06 | 1.8e-05 ± 1.5e-06 | 1.67e-05 ± 1.5e-06 | 1.52e-05 ± 1.5e-06 | 1.31e-05 ± 1.5e-06 | 1.24e-05 ± 1.5e-06 | 1.18e-05 ± 1.5e-06
343.2 K | 1.54e-05 ± 1.5e-06 | 1.49e-05 ± 1.5e-06 | 1.41e-05 ± 1.5e-06 | 1.35e-05 ± 1.5e-06 | 1.21e-05 ± 1.5e-06 | 1.05e-05 ± 1.5e-06 | 9.8e-06 ± 1.5e-06 | 9.3e-06 ± 1.5e-06
353.2 K | 1.21e-05 ± 1.5e-06 | 1.17e-05 ± 1.5e-06 | 1.13e-05 ± 1.5e-06 | 1.11e-05 ± 1.5e-06 | 1.01e-05 ± 1.5e-06 | 9e-06 ± 1.5e-06 | 8.1e-06 ± 1.5e-06 | 7.6e-06 ± 1.5e-06
363.2 K | 9.8e-06 ± 1.5e-06 | 9.4e-06 ± 1.5e-06 | 9.1e-06 ± 1.5e-06 | 8.8e-06 ± 1.5e-06 | 8.4e-06 ± 1.5e-06 | 8e-06 ± 1.5e-06 | 7e-06 ± 1.5e-06 | 6.5e-06 ± 1.5e-06

CCn1cc[n+](C)c1.CS(=O)(=O)[O-] [1-ethyl-3-methylimidazolium methanesulfonate]
[2]
Conditions | mass density [kg/m3]
293.2 K | 1244 ± 9
303.2 K | 1237 ± 9
313.2 K | 1230 ± 8
323.2 K | 1223 ± 8
333.2 K | 1217 ± 8
343.2 K | 1212 ± 8
353.2 K | 1205 ± 8
363.2 K | 1198 ± 8

CCn1cc[n+](C)c1.CS(=O)(=O)[O-] [1-ethyl-3-methylimidazolium methanesulfonate] + O
kinematic viscosity [m2/s], [1]
Conditions | w2 = 0.0024 | w2 = 0.0028 | w2 = 0.01 | w2 = 0.0191 | w2 = 0.0254 | w2 = 0.0323 | w2 = 0.0358 | w2 = 0.047 | w2 = 0.0589 | w2 = 0.0615
303.2 K | 9.34e-05 ± 3.5e-06 | 9.45e-05 ± 3.5e-06 | 7.58e-05 ± 2.9e-06 | 6.2e-05 ± 2.4e-06 | 5.53e-05 ± 2.2e-06 | 4.69e-05 ± 2.1e-06 | 4.51e-05 ± 2e-06 | 3.69e-05 ± 1.9e-06 | 3.06e-05 ± 1.7e-06 | 2.95e-05 ± 1.7e-06
313.2 K | 5.57e-05 ± 6.2e-06 | 5.64e-05 ± 7.2e-06 | 4.66e-05 ± 2.1e-06 | 3.91e-05 ± 2e-06 | 3.5e-05 ± 1.9e-06 | 3.06e-05 ± 1.8e-06 | 2.96e-05 ± 1.8e-06 | 2.48e-05 ± 1.7e-06 | 2.09e-05 ± 1.6e-06 | 2.02e-05 ± 1.6e-06
323.2 K | 3.74e-05 ± 3.6e-06 | 3.65e-05 ± 2.1e-06 | 3.23e-05 ± 1.8e-06 | 2.65e-05 ± 1.7e-06 | 2.39e-05 ± 1.7e-06 | 2.1e-05 ± 1.6e-06 | 2.09e-05 ± 1.6e-06 | 1.77e-05 ± 1.6e-06 | 1.49e-05 ± 1.6e-06 | 1.46e-05 ± 1.6e-06
333.2 K | 2.57e-05 ± 1.7e-06 | – | 2.26e-05 ± 1.6e-06 | – | 1.76e-05 ± 1.6e-06 | – | 1.53e-05 ± 1.6e-06 | 1.31e-05 ± 1.5e-06 | – | 1.11e-05 ± 1.5e-06
343.2 K | 1.86e-05 ± 1.6e-06 | – | 1.66e-05 ± 1.6e-06 | – | 1.32e-05 ± 1.5e-06 | – | 1.16e-05 ± 1.5e-06 | 1.01e-05 ± 1.5e-06 | – | 8.5e-06 ± 1.5e-06
353.2 K | 1.39e-05 ± 1.6e-06 | – | 1.24e-05 ± 1.5e-06 | – | 1.02e-05 ± 1.5e-06 | – | 9.1e-06 ± 1.5e-06 | 8e-06 ± 1.5e-06 | – | 6.8e-06 ± 1.5e-06
363.2 K | 1.09e-05 ± 1.5e-06 | – | 9.7e-06 ± 1.5e-06 | – | 8.1e-06 ± 1.5e-06 | – | 7.3e-06 ± 1.5e-06 | 6.5e-06 ± 1.5e-06 | – | 5.6e-06 ± 1.5e-06

[3]
Conditions | binary diffusion coefficient [m2/s]
303.2 K | 2.1e-10
313.2 K | 3.1e-10
333.2 K | 5.35e-10
353.2 K | 8.3e-10
373.2 K | 1.17e-09

COP(=O)([O-])OC.Cn1cc[n+](C)c1 [1,3-dimethylimidazolium dimethylphosphate] + O
kinematic viscosity [m2/s], [1]
Conditions | w2 = 0.0031 | w2 = 0.0085 | w2 = 0.019 | w2 = 0.0237 | w2 = 0.0341 | w2 = 0.0493 | w2 = 0.0587 | w2 = 0.0655
303.2 K | 0.000137 ± 3.8e-06 | 0.000128 ± 3.6e-06 | 0.000114 ± 3.1e-06 | 0.000107 ± 2.9e-06 | 9.53e-05 ± 2.6e-06 | 7.95e-05 ± 2.3e-06 | 7.22e-05 ± 2.1e-06 | 6.73e-05 ± 2e-06
313.2 K | 7.79e-05 ± 2.7e-06 | 7.35e-05 ± 2.4e-06 | 6.62e-05 ± 2.2e-06 | 6.27e-05 ± 2.2e-06 | 5.63e-05 ± 2e-06 | 4.77e-05 ± 1.9e-06 | 4.37e-05 ± 1.8e-06 | 4.09e-05 ± 1.8e-06
323.2 K | 4.84e-05 ± 1.9e-06 | 4.59e-05 ± 1.8e-06 | 4.18e-05 ± 1.7e-06 | 3.98e-05 ± 1.7e-06 | 3.6e-05 ± 1.7e-06 | 3.09e-05 ± 1.6e-06 | 2.85e-05 ± 1.6e-06 | 2.68e-05 ± 1.6e-06
333.2 K | 3.22e-05 ± 1.6e-06 | 3.07e-05 ± 1.6e-06 | 2.81e-05 ± 1.6e-06 | 2.69e-05 ± 1.6e-06 | 2.45e-05 ± 1.6e-06 | 2.13e-05 ± 1.6e-06 | 1.97e-05 ± 1.5e-06 | 1.86e-05 ± 1.5e-06
343.2 K | 2.27e-05 ± 1.6e-06 | 2.17e-05 ± 1.5e-06 | 2e-05 ± 1.5e-06 | 1.92e-05 ± 1.5e-06 | 1.75e-05 ± 1.5e-06 | 1.53e-05 ± 1.5e-06 | 1.43e-05 ± 1.5e-06 | 1.35e-05 ± 1.5e-06
353.2 K | 1.67e-05 ± 1.5e-06 | 1.6e-05 ± 1.5e-06 | 1.48e-05 ± 1.5e-06 | 1.42e-05 ± 1.5e-06 | 1.31e-05 ± 1.5e-06 | 1.15e-05 ± 1.5e-06 | 1.07e-05 ± 1.5e-06 | 1.02e-05 ± 1.5e-06
363.2 K | 1.27e-05 ± 1.5e-06 | 1.22e-05 ± 1.5e-06 | 1.17e-05 ± 1.5e-06 | 1.09e-05 ± 1.5e-06 | 1.01e-05 ± 1.5e-06 | 8.9e-06 ± 1.5e-06 | 8.5e-06 ± 1.5e-06 | 8e-06 ± 1.5e-06
